According to patent US20240166643A1, “IMIDAZO[1,2-A]PYRIDINE COMPOUNDS AND THEIR USE IN THERAPY” (Imperial College Innovations Limited, priority 2020, published 2024):

How the values were obtained:
SU-DHL-10 cells = experiment: Cell cytotoxicity in SU-DHL-10 cell line (CellTiter-Glo); type: cell-based; settings: Homo sapiens, SU-DHL10; CellTiter-Glo, 48 h; read-out: SU-DHL-10 EC50
Protocol: Assay (c): Cell Cytotoxicity in SU-DHL-10 Cell Line
Cell Culture: SU-DHL-10 (ATCC CRL-2963) were cultured in RPMI-media (ATCC, 30-2001).
Cultures were maintained by the addition of fresh medium and inoculum of 8.0×10^4 to 2.0×10^5 cells/mL. Subculturing was done when the cell density was between 1.0×10^6 and 2.0×10^6 cells/mL.
Cell seeding: 5000 cells/well were plated in 384-white clear bottom plates (Greiner, 781098) for the assay in 20 μl growth media.
Top dose: 1 mM stocks of each compound was prepared in 100% DMSO and thereafter diluted 333.33 fold in growth media to obtain 3 μM (0.3% DMSO) mid stock of each compound, from which 10 μl was added to assay wells (with 20 μl cells) for a final concentration of 1 μM (0.1% DMSO). For subsequent dose-response: 1 mM stock was diluted 3 fold in DMSO before subjecting to above dilution pattern to obtain final 0.1% DMSO concentration.
Treatment: Cells were incubated with the compounds for 48 h at 37° C. in presence of 5% CO2.
Assay Procedure: The assay plate and its contents were equilibrated at room temperature for approximately 30 minutes. CellTiter-Glo® Reagent was added equal to the volume (1;1) of cell culture medium present in each well. The contents were mixed for 5 minutes on an orbital shaker to induce cell lysis. The plate was allowed to incubate at room temperature for 10 minutes to stabilize luminescent signal. The luminescence was recorded with an integration time of 0.25 seconds in EnVision 2104 Multilabel Plate Reader (Perkin Elmer).
Calculation: % Cytotoxicity was calculated considering 100% cell death in wells treated with 0.1% TritonX.

Human NMT1 (HsNMT1) = Human NMT1 (HsNMT1) (Homo sapiens, UniProt P30419); experiment: biochemical
Sequence of Human NMT1 (HsNMT1) (P30419 whole entry, looked up): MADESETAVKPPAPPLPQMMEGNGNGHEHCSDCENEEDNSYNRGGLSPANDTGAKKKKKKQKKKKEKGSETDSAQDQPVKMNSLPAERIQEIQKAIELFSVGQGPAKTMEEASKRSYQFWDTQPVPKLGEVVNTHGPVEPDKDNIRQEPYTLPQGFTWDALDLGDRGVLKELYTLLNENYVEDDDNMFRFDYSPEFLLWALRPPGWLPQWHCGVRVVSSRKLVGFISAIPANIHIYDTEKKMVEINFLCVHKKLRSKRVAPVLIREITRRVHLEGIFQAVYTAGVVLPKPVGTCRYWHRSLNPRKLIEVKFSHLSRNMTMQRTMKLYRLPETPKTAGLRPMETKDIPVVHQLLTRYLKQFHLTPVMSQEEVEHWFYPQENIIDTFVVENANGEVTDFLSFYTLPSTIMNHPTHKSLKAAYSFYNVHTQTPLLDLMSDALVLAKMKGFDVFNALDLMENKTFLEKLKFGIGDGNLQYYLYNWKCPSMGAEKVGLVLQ

Row | Compound | IC50 (Human NMT1 (HsNMT1)) [nM] | EC50 (SU-DHL-10 cells) [nM]
1 | CN1CCCN(c2nc(N3CC(C(=O)NC(C)(C)c4cnc5ccccn45)C3)c3ccsc3n2)CC1 [Example 113, N-(2-(imidazo[1,2-a]pyridin-3-yl)propan-2-yl)-1-(2-(4-methyl-1,4-diazepan-1-yl)thieno[2,3-d]pyrimidin-4-yl)azetidine-3-carboxamide] | 5 | 33
2 | Cc1cc2c(N3CC(C(=O)NC(C)(C)c4cnc5ccccn45)C3)nc(N3CCCN(C)CC3)nc2s1 [Example 117, N-(2-(imidazo[1,2-a]pyridin-3-yl)propan-2-yl)-1-(6-methyl-2-(4-methyl-1,4-diazepan-1-yl)thieno[2,3-d]pyrimidin-4-yl)azetidine-3-carboxamide] | 6 | 66
3 | CN1CCCN(c2ncc(Cl)c(N3CC(C(=O)N(C)C(C)(C)c4cnc5ccccn45)C3)n2)CC1 [Example 121, 1-(5-chloro-2-(4-methyl-1,4-diazepan-1-yl)pyrimidin-4-yl)-N-(2-(Imidazo[1,2-a]pyridin-3-yl)propan-2-yl)-N-methylazetidine-3-carboxamide] | 4 | 42
4 | CCN(C(=O)C1CN(c2nc(N3CCNCC3)ncc2Cl)C1)C(C)(C)c1cnc2ccccn12 [Example 136, 1-(5-chloro-2-(piperazin-1-yl)pyrimidin-4-yl)-N-ethyl-N-(2-(imidazo[1,2-a]pyridin-3-yl)propan-2-yl)azetidine-3-carboxamide] | 7 | 161
5 | C[C@@H]1CNCCN1c1ncc(Cl)c(N2CC(C(=O)NC(C)(C)c3cnc4ccccn34)C2)n1 [Example 141, (R)-1-(5-chloro-2-(2-methylpiperazin-1-yl)pyrimidin-4-yl)-N-(2-(Imidazo[1,2-a]pyridin-3-yl)propan-2-yl)azetidine-3-carboxamide] | 4 | 378
6 | CC1NCCN(c2ncc(Cl)c(N3CC(C(=O)N(C)C(C)(C)c4cnc5ccccn45)C3)n2)C1C (stereo not shown) [Example 134, 1-(5-chloro-2-(2,3-dimethylpiperazin-1-yl)pyrimidin-4-yl)-N-(2-(Imidazo[1,2-a]pyridin-3-yl)propan-2-yl)-N-methylazetidine-3-carboxamide] | 5 | 106
7 | C[C@H]1CNCCN1c1nc(N2CC(C(=O)N(C)C(C)(C)c3cnc4ccccn34)C2)c2sccc2n1 [Example 125, (S)—N-(2-(imidazo[1,2-a]pyridin-3-yl)propan-2-yl)-N-methyl-1-(2-(2-methylpiperazin-1-yl)thieno[3,2-d]pyrimidin-4-yl)azetidine-3-carboxamide] |  | 361
8 | CN(C(=O)C1CN(c2nc(N3CCNC4(CC4)C3)ncc2Cl)C1)C(C)(C)c1cnc2ccccn12 [Example 130, 1-(5-chloro-2-(4,7-diazaspiro[2.5]octan-7-yl)pyrimidin-4-yl)-N-(2-(imidazo[1,2-a]pyridin-3-yl)propan-2-yl)-N-methylazetidine-3-carboxamide] | 54 | 547
9 | CC(C)(NC(=O)C1CN(c2nc(N3CC4CCC(C3)N4)ncc2Cl)C1)c1cnc2ccccn12 [Example 144, 1-(2-(3,8-diazabicyclo[3.2.1]octan-3-yl)-5-chloropyrimidin-4-yl)-N-(2-(imidazo[1,2-a]pyridin-3-yl)propan-2-yl)azetidine-3-carboxamide] | 5 | 243
10 | C[C@@H]1CN(c2ncc(Cl)c(N3CC(C(=O)N(C)C(C)(C)c4cnc5ccccn45)C3)n2)CCN1 [Example 124, (R)-1-(5-chloro-2-(3-methylpiperazin-1-yl)pyrimidin-4-yl)-N-(2-(Imidazo[1,2-a]pyridin-3-yl)propan-2-yl)-N-methylazetidine-3-carboxamide] |  | 448
11 | Cc1nc(N2CCCN(C)CC2)nc(N2CC(C(=O)NC(C)(C)c3cnc4ccccn34)C2)c1Cl [Example 115, 1-(5-chloro-6-methyl-2-(4-methyl-1,4-diazepan-1-yl)pyrimidin-4-yl)-N-(2-(imidazo[1,2-a]pyridin-3-yl)propan-2-yl)azetidine-3-carboxamide] |  | 54
12 | CN(C(=O)C1CN(c2nc(N3CCNCC34CC4)ncc2Cl)C1)C(C)(C)c1cnc2ccccn12 [Example 150, 1-(5-chloro-2-(4,7-diazaspiro[2.5]octan-4-yl)pyrimidin-4-yl)-N-(2-(imidazo[1,2-a]pyridin-3-yl)propan-2-yl)-N-methylazetidine-3-carboxamide] |  | > 1000
13 | CN(C(=O)C1CN(c2nc(N3CCNCC3(C)C)ncc2Cl)C1)C(C)(C)c1cnc2ccccn12 [Example 149, 1-(5-chloro-2-(2,2-dimethylpiperazin-1-yl)pyrimidin-4-yl)-N-(2-(Imidazo[1,2-a]pyridin-3-yl)propan-2-yl)-N-methylazetidine-3-carboxamide] |  | 145
14 | C[C@H]1CN(c2ncc(Cl)c(N3CC(C(=O)N(C)C(C)(C)c4cnc5ccccn45)C3)n2)CCN1 [Example 139, (S)-1-(5-chloro-2-(3-methylpiperazin-1-yl)pyrimidin-4-yl)-N-(2-(Imidazo[1,2-a]pyridin-3-yl)propan-2-yl)-N-methylazetidine-3-carboxamide] |  | 542

Now from value to compound, other results behind:

Row | IC50 (Human NMT1 (HsNMT1)) [nM] | Compound | EC50 (SU-DHL-10 cells) [nM]
15 | 3 | C[C@@H]1CN(c2ncc(Cl)c(N3CC(C(=O)NC(C)(C)c4cnc5ccccn45)C3)n2)[C@@H](C)CN1 [Example 153, 1-(5-chloro-2-((2S,5R)-2,5-dimethylpiperazin-1-yl)pyrimidin-4-yl)-N-(2-(imidazo[1,2-a]pyridin-3-yl)propan-2-yl)azetidine-3-carboxamide] | 54
16 | 178 | C[C@@H]1CN(C)CCN1c1ncc(Cl)c(N2CC(C(=O)N(C)C(C)(C)c3cnc4ccccn34)C2)n1 [Example 142, (R)-1-(5-chloro-2-(2,4-dimethylpiperazin-1-yl)pyrimidin-4-yl)-N-(2-(imidazo[1,2-a]pyridin-3-yl)propan-2-yl)-N-methylazetidine-3-carboxamide] | 489
17 | 10 | C[C@@H]1CN(c2ncc(Cl)c(N3CC(C(=O)NC(C)(C)c4cnc5ccccn45)C3)n2)[C@@H](C)CN1C [Example 154, 1-(5-chloro-2-((2S,5R)-2,4,5-trimethylpiperazin-1-yl)pyrimidin-4-yl)-N-(2-(imidazo[1,2-a]pyridin-3-yl)propan-2-yl)azetidine-3-carboxamide] | 453
18 | 2 | CC[C@H]1CNCCN1c1ncc(Cl)c(N2CC(C(=O)NC(C)(C)c3cnc4ccccn34)C2)n1 [Example 147, (S)-1-(5-chloro-2-(2-ethylpiperazin-1-yl)pyrimidin-4-yl)-N-(2-(imidazo[1,2-a]pyridin-3-yl)propan-2-yl)azetidine-3-carboxamide] | 12
19 | 3 | CC1NCCN(c2ncc(Cl)c(N3CC(C(=O)NC(C)(C)c4cnc5ccccn45)C3)n2)C1C (stereo not shown) [Example 143, 1-(5-chloro-2-(2,3-dimethylpiperazin-1-yl)pyrimidin-4-yl)-N-(2-(Imidazo[1,2-a]pyridin-3-yl)propan-2-yl)azetidine-3-carboxamide] | 5
20 | 8 | C[C@H]1CN(c2ncc(Cl)c(N3CC(C(=O)NC(C)(C)c4cnc5ccccn45)C3)n2)[C@@H](C)CN1C [Example 152, 1-(5-chloro-2-((2S,5S)-2,4,5-trimethylpiperazin-1-yl)pyrimidin-4-yl)-N-(2-(imidazo[1,2-a]pyridin-3-yl)propan-2-yl)azetidine-3-carboxamide] | 306
